According to patent publication US10131932B2, “Method for assaying a protease” (McMaster University, priority 2013, dated 2018):

Legend:
Thrombin [1] = experiment: Thrombin activity on substrate S2238 with inhibitors; type: biochemical; settings: 60 minutes incubation, alpha-2-macroglobulin 0.2 μM, PPAck 20 μM
Procedure: The effect of thrombin substrate, S2238, on thrombin activity in the presence and absence of alpha-2-macroglobulin was then determined. Following addition of thrombin (as above), thrombin incubated with alpha-2-macroglobulin for 60 minutes (as above), thrombin incubated with PPAck (as above) for 60 minutes, or thrombin incubated with alpha-2-macroglobulin (0.2 μM) and PPAck (20 μM) for 60 minutes, to S2238, thrombin activity was determined.

Thrombin [2] = experiment: Thrombin activity on T13 FRET-protein substrate with inhibitors; type: biochemical; settings: 60 minutes incubation, alpha-2-macroglobulin 0.2 μM, PPAck 20 μM
Procedure: The effect of the FRET-protein substrate on the thrombin activity in the absence and presence of alph-2-macroglobulin was then determined. Following addition of either thrombin (as above), thrombin incubated with alpha-2-macroglobulin for 60 minutes (as above) or thrombin incubated for 60 minutes with the thrombin inhibitor, PPAck (D-FPR-chloromethyl ketone, 20 μM), thrombin activity was determined. Thrombin was inhibited by either alpha-2-macroglobulin or PPAck, as shown by the reduction in the slope of the ratio for each (FIG. 11B).

[3] = test system: thrombin generation in whole blood; experiment: Thrombin generation in unanticoagulated whole blood with FRET-protein substrate; type: biochemical, human; settings: for area-under-the-curve of slope of the ratio curve / maximal upslope of slope of the ratio curve / peak height of slope of the ratio curve / thrombin generation: increasing amounts of anticoagulant in whole blood
Procedure: In this experiment, 12 μL of unanticoagulated human blood, obtained from a finger prick of a healthy human donor, was added to a plastic vessel (NUNC, Polystyrene, 384 well plate) containing the T13 FRET-protein substrate (8 μL in PIPES buffer, 4.6 μM final concentration) within 30 seconds of lancing the finger. Results were obtained on a fluorescence spectrophotometer, as above, temperature controlled to 37° C. Initially, as the mixture warms, the ratio of emission at 526 nm:581 nm decreases slightly, but then increases, initially sharply to a plateau as shown in FIG. 6.
The slope (first derivative) of the ratio was then determined using a mathematical program such as Excel or GraphPad Prism as shown in FIG. 7A. The curve of the slope of the ratio is smoothed using 20 neighbours using a mathematical program (Excel or GraphPad Prism). This is the typical appearance of a thrombin generation curve in plasma. Parameters that could be used to describe this curve include, but are not limited to, peak height, time to peak, lag time, maximal upslope, and area-under-the curve to a certain time point. FIG. 7B compares a) 12 μL blood combined with FRET-protein substrate (final conc. 4.6 μM) to final volume of 20 μL to b) 20 μL blood combined with FRET-protein substrate (final conc. 5.1 μM) to a final volume of 22.5 μL. The time-to-peak and lag-time are shortened and the peak height, maximal upslope and area-under-the-curve are increased in the latter where the blood is less dilute.
The effect of rivaroxaban on thrombin generation in the blood was determined. Unanticoagulated blood was taken from a finger prick of a healthy volunteer. The blood was added to a plastic vessel containing the FRET-protein substrate (0.62 μM) and rivaroxaban at various concentrations (to a final concentration of 5 μg/L, 25 μg/L and 50 μg/L).
The effect of apixaban on thrombin generation in the blood was also determined. Blood was added to FRET-protein substrate and various concentrations of apixaban was (to a final concentration of 25 μg/L, 100 μg/L, 400 μg/L and 1000 μg/L). Apixaban also alters the shape of the “slope of the ratio curve”.
The effect of dabigatran on thrombin generation in the blood was also determined. Blood was added to FRET-protein substrate and various concentrations of […] was (to a final concentration of 25 μg/L, 100 μg/L and 400 μg/L). Dabigatran also alters the shape of the “slope of the ratio curve”. […]

Thrombin [4] = experiment: Fibrinogen clotting by thrombin, turbidity at 405 nm; type: biochemical; settings: 0.2 μM
Procedure: The effect of alpha-2-macroglobulin on thrombin activity was determined. Thrombin (2 nM) and calcium (5 mM) were combined in PIPES buffer. Clotting was initiated by the addition of fibrinogen (3 μM). Clotting was measured by monitoring turbidity 405 nm using a spectrometer. The fibrinogen clotted within 10 minutes and remained clotted.

Question: `NC(N)=NCCC[C@H](NC(=O)[C@@H]1CCCN1C(=O)[C@H](N)Cc1ccccc1)C(=O)CCl` [PPAck, D-FPR-chloromethyl ketone] was tested. Which “thrombin activity (slope of absorbance)” value (Thrombin [1]) did it give?
Answer: substantial inhibition

Question: And the “thrombin activity (slope of the ratio)” value (Thrombin [2])?
Answer: inhibited

Question: How did the time to peak ([3]; anticoagulant in whole blood, dabigatran at higher concentrations) turn out when `COc1ccc(-n2nc(C(N)=O)c3c2C(=O)N(c2ccc(N4CCCCC4=O)cc2)CC3)cc1` [apixaban] was run?
Answer: increase the time to peak

Question: What about the “area-under-the-curve of slope of the ratio curve” value [3] of the same molecule?
Answer: decreased

Question: And the “maximal upslope of slope of the ratio curve” value [3]?
Answer: decreased

Question: What about the “peak height of slope of the ratio curve” value [3] of the same molecule?
Answer: decreased

Question: What about the thrombin generation [3] of the same molecule?
Answer: decreases thrombin generation

Question: What does the source list for `O=C(NC[C@H]1CN(c2ccc(N3CCOCC3=O)cc2)C(=O)O1)c1ccc(Cl)s1` [rivaroxaban]?
Answer: area-under-the-curve of slope of the ratio curve [3]: decreased; maximal upslope of slope of the ratio curve [3]: decreased; peak height of slope of the ratio curve [3]: decreased; thrombin generation [3]: decrease thrombin generation

Question: How did the “thrombin generation (peak of slope of ratio)” value ([3]; 200 μg/mL final concentration, unanticoagulated whole blood) turn out when corn trypsin inhibitor was run?
Answer: delay and reduce

B1: alpha-2-macroglobulin: thrombin-binding plasma inhibitor protein (protein, UniProt P01023 24-1474, looked up)
Alpha-2-macroglobulin: SVSGKPQYMVLVPSLLHTETTEKGCVLLSYLNETVTVSASLESVRGNRSLFTDLEAENDVLHCVAFAVPKSSSNEEVMFLTVQVKGPTQEFKKRTTVMVKNEDSLVFVQTDKSIYKPGQTVKFRVVSMDENFHPLNELIPLVYIQDPKGNRIAQWQSFQLEGGLKQFSFPLSSEPFQGSYKVVVQKKSGGRTEHPFTVEEFVLPKFEVQVTVPKIITILEEEMNVSVCGLYTYGKPVPGHVTVSICRKYSDASDCHGEDSQAFCEKFSGQLNSHGCFYQQVKTKVFQLKRKEYEMKLHTEAQIQEEGTVVELTGRQSSEITRTITKLSFVKVDSHFRQGIPFFGQVRLVDGKGVPIPNKVIFIRGNEANYYSNATTDEHGLVQFSINTTNVMGTSLTVRVNYKDRSPCYGYQWVSEEHEEAHHTAYLVFSPSKSFVHLEPMSHELPCGHTQTVQAHYILNGGTLLGLKKLSFYYLIMAKGGIVRTGTHGLLVKQEDMKGHFSISIPVKSDIAPVARLLIYAVLPTGDVIGDSAKYDVENCLANKVDLSFSPSQSLPASHAHLRVTAAPQSVCALRAVDQSVLLMKPDAELSASSVYNLLPEKDLTGFPGPLNDQDNEDCINRHNVYINGITYTPVSSTNEKDMYSFLEDMGLKAFTNSKIRKPKMCPQLQQYEMHGPEGLRVGFYESDVMGRGHARLVHVEEPHTETVRKYFPETWIWDLVVVNSAGVAEVGVTVPDTITEWKAGAFCLSEDAGLGISSTASLRAFQPFFVELTMPYSVIRGEAFTLKATVLNYLPKCIRVSVQLEASPAFLAVPVEKEQAPHCICANGRQTVSWAVTPKSLGNVNFTVSAEALESQELCGTEVPSVPEHGRKDTVIKPLLVEPEGLEKETTFNSLLCPSGGEVSEELSLKLPPNVVEESARASVSVLGDILGSAMQNTQNLLQMPYGCGEQNMVLFAPNIYVLDYLNETQQLTPEIKSKAIGYLNTGYQRQLNYKHYDGSYSTFGERYGRNQGNTWLTAFVLKTFAQARAYIFIDEAHITQALIWLSQRQKDNGCFRSSGSLLNNAIKGGVEDEVTLSAYITIALLEIPLTVTHPVVRNALFCLESAWKTAQEGDHGSHVYTKALLAYAFALAGNQDKRKEVLKSLNEEAVKKDNSVHWERPQKPKAPVGHFYEPQAPSAEVEMTSYVLLAYLTAQPAPTSEDLTSATNIVKWITKQQNAQGGFSSTQDTVVALHALSKYGAATFTRTGKAAQVTIQSSGTFSSKFQVDNNNRLLLQQVSLPELPGEYSMKVTGEGCVYLQTSLKYNILPEKEEFPFALGVQTLPQTCDEPKAHTSFQISLSVSYTGSRSASNMAIVDVKMVSGFIPLKPTVKMLERSNHVSRTEVSSNHVLIYLDKVSNQTLSLFFTVLQDVPVRDLKPAIVKVYDYYETDEFAIAEYNAPCSKDLGNA
Question: How did the clotting of fibrinogen (Thrombin [4]; pre-incubation with thrombin (2 nM) for 35 minutes) turn out when B1 was run?
Answer: reduced clotting

Question: And the clotting of fibrinogen (Thrombin [4]; pre-incubation with thrombin (2 nM) for 60 minutes)?
Answer: inhibited clotting

Question: What about the “thrombin activity (slope of absorbance)” value (Thrombin [1]) of the same molecule?
Answer: little inhibition

Question: What about the “thrombin activity (slope of the ratio)” value (Thrombin [2]) of the same molecule?
Answer: inhibited
